# Test results from US20130065227A1, “METHODS OF INCREASING MACROPINOCYTOSIS IN CANCER CELLS” (priority 2010, published 2013).
# Columns and labels:
# [1] = test system: Hs27 cells; assay: Uptake of fluorophore-labeled oligonucleotides by flow cytometry; format: cell-based, human; conditions: 10 μM, 2 h
# Description: FIG. 1 are graphs showing that AS1411 cell internalization is an active process. Cells were plated 18 h before uptake analysis. After incubation as described, cells were washed with ice-cold PBS, incubated with 1 μg/ml 7-AAD, harvested and resuspended in 1% paraformaldehyde containing 2 μg/ml actinomycin D, then analyzed by flow cytometry. (Panel A) DU145 cells were incubated at 37° C. with fresh complete DMEM medium containing 10 μM FL-AS1411 (black line) or 10 μM FL-CRO (gray line) for the time indicated. (Panel B) DU145 cells were incubated for 2 h at 37° C. in complete or serum-free DMEM medium containing 10 μM FL-AS1411, or 10 μM FL-CRO, or no oligonucleotide. (Panel C) Various cell lines were incubated with 10 μM FL-AS1411 (black outline histogram), 10 μM FL-CRO (gray outline histogram) or without DNA (solid gray histogram) at 37° C. or 4° C. for 2 h. All experiments were repeated at least three times. Data are mean of three independent samples; bars, SE; *(p<0.05).
# (§1) FIG. 2 are graphs showing that AS1411 is internalized by different endocytic mechanisms in DU145 cancer cells and in non-malignant Hs27 cells. DU145 or Hs27 cells were plated 18 h before uptake analysis. Cells were pre-treated as described with inhibitor (gray histogram) or the corresponding vehicle control (black histogram) before addition of 10 μM FL-AS1411 and incubation at 37° C. for 2 h. After incubation, cells were harvested and analyzed by flow cytometry. Pre-treatment conditions were at 37° C. with: (Panel A) 5 μM Cytochalasin D for 30 min; (Panel B) 80 μM Dynasore for 30 min; or (Panel C) 3 mM amiloride for 1 h. All experiments were repeated at least three times and representative data are shown. Solid gray histograms represent background autofluorescence of unstained cells.
# FIG. 9 are graphs showing the effects of inhibitors on various endocytic pathways. DU145 or Hs27 cells were plated 18 hr before uptake analysis. (Panel A) DU145 cells were pre-treated with dynamin inhibitor, […] Dynasore (black histogram) or DMSO (gray histogram) for 30 min at 37° C. After pre-treatment, cells were treated with […] transferrin conjugated with Alexa Fluor 488 for 30 min at 37° C. (Panel B) DU145 and Hs27 cells were pre-treated with 3 mM amiloride (black histogram) or vehicle (serum-free medium, gray histogram) for 1 h at 37° C. After pre-treatment, FL-CRO was added at a concentration of 10 μM and incubated at 37° C. for 2 h. After incubation, cells were harvested and analyzed by FACS. Gray solid histogram represents unstained cells.
# To analyze uptake of the oligodeoxynucleotides or dextran-10K (macropinocytic marker) by flow cytometry, 2×10^5 cells in fresh supplemented culture medium (2.5 ml) were plated into 6-well plates for 18 h. […]
# [2] = test system: MDA-MB-231; assay: Uptake of AS1411 by macropinocytosis (MP); format: cell-based; conditions: MDA-MB-231; Cancer, breast
# Description: (§2) There was little effect of amiloride treatment on uptake of FL-CRO in either DU145 cancer cells or non-malignant Hs27 cells (FIG. 9B). […] These studies also confirmed the previous results that there was higher overall uptake of FL-AS1411 in Hs27 cells than in DU145 cells.
# (§3) It has recently been discovered that AS1411 can stimulate macropinocytosis (MP) in cancer cells and this finding was verified by several different methods and in multiple cancer cell lines (Table 1).
# [3] = test system: MCF7; assay: Uptake of AS1411 by macropinocytosis (MP); format: cell-based; conditions: MCF7; Cancer, breast
# Description: as §2, §3
# [4] = test system: most cancer cells tested; assay: Cell death on continuous exposure; format: cell-based; conditions: 10 μM AS1411
# Description: As described above, it is known that AS1411 can induce an unusual form of cell death in cancer cells. It was previously shown that G-rich oligonuclotides could induce cell death selectively in cancer cells compared to non-malignant cells, but it was noted that the morphology of the cells was inconsistent with death by apoptosis. The timing of cell death was also quite unusual, with continuous exposure (at 10 μM AS1411) for 7 days or more required to cause complete cell death for most cancer cells tested. […] However, cell death was also dose-dependent and occurred within hours in DU145 cells treated with 40 μM AS1411. Based on the various published reports, the cell death mechanism in U937 leukemia cells was investigated, and it was confirmed that cell death was not by apoptosis (FIG. 14 A-D). […] Although the same detailed studies of cell death have not been carried out in other cancer cell lines, it is consistently seen that AS1411-responsive cells die with a characteristic morphology (enlarged and vacuolated cells) without evidence of apoptosis.
# [5] = test system: several cell lines; assay: Annexin V / PI flow cytometry to assess cell death; format: cell-based
# Description: (A) Trypan blue staining of U937 leukemia cells showing percentage of dead cells (trypan blue positive) over time. (B) U937 cells were untreated (Un) or treated with 1 μM AS1411 (1411) or control oligonucleotide (Ctrl) for 72 h. DNA was extracted, electrophoresed on an agarose gel and stained with ethidium bromide to probe DNA laddering. As a positive control, […] were treated with UV irradiation to induce apoptosis as previously described. […] (D) U937 cells treated as described for panel B, followed by protein extraction and immunoblotting (IB) to detect PARP cleavage and Caspase-3 activation. (E) DU145 prostate cancer cells were incubated with 10 μM of AS1411 for 24 h, or irradiated with UV (300 J/m^2 with UV Stratalinker 2400, Strategene), then cultured in fresh medium for 6 h. Assessment of cell death was carried out by flow cytometry to detect Annexin V-FITC binding and PI staining.
# [6] = test system: DU145 cells; assay: Cell death / cytotoxicity; format: cell-based
# [7] = test system: BEAS2B; assay: Stimulation of macropinocytosis (dextran uptake); format: cell-based; conditions: Non-cancer, lung epithelial
# Description: as §3
# [8] = test system: RCC4; assay: Stimulation of macropinocytosis (dextran uptake); format: cell-based; conditions: Cancer, renal cell
# Description: as §3
# [9] = test system: RWPE1; assay: Stimulation of macropinocytosis (dextran uptake); format: cell-based; conditions: Non-cancer, prostate epithelial
# Description: as §3
# [10] = test system: DU145; assay: Uptake of AS1411 by macropinocytosis (MP); format: cell-based; conditions: DU145; Cancer, prostate
# Description: as §1
# To analyze uptake of the oligodeoxynucleotides or dextran-10K (macropinocytic marker) by flow cytometry, 2×10^5 cells in fresh supplemented culture medium (2.5 ml) were plated into 6-well plates for 18 h. After complete adhesion, the cells were incubated with 5′-FAM tagged oligodeoxynucleotides or Alexa Fluor 488 tagged dextran-10K and incubated as indicated in the Description of the Drawings. Cells were washed once with ice-cold PBS, incubated with 1 μg/ml 7-amino-actinomycin D (7-AAD) for 5 min on ice or 1 μg/ml propidium iodide (PI), and washed twice with ice-cold PBS. […]
substance,measurement,setting,value
5′-d(GGTGGTGGTGGTTGTGGTGGTGGTGG) [AS1411],uptake in Hs27 cells compared with cancer cells,[1],higher uptake of AS1411 than any of the cancer cells analyzed
same,Update by MP?,[2],Yes
same,Update by MP?,[3],Yes
same,continuous exposure required to cause complete cell death,[4],≥ 7 days
same,Annexin V / PI quadrant in which cells appear,[5],Annexin V-positive/propidium iodide (PI)-positive quadrant (indicative of necrosis)
same,timing of cell death,[6]; 40 μM AS1411,within hours
same,cytotoxicity at higher concentrations,"[6]; concentrations higher than 40 μM, early time point (2 h)",apparent cytotoxicity
same,Stimulate MP?,[7],No
same,Stimulate MP?,[8],Yes
same,Stimulate MP?,[9],No
same,Update by MP?,[10],Yes
